From patent US20230295182A1, “SPIRO DERIVATIVES OF ALPHA-D-GALACTOPYRANOSIDES” (Idorsia Pharmaceuticals Ltd, priority 2020, published 2023) come the findings set out here.

In general, IC50 refers to the midpoint of a concentration-inhibition curve.

One experiment addresses human Gal-3 (hGal-3) (Homo sapiens (Human), UniProt P17931). As to the kind of experiment: Competitive binding assay: biotinylated hGal-3 to microplate-adsorbed asialofetuin (ASF). To be noted: Activity on hGal-3; binding to ASF-coated plates, 3 hours at 4° C.; mean values. A digest of the protocol:
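Biotinylated hGal-3 (300-1000 ng/mL) binding to plate-adsorbed asialofetuin, with DMSO-diluted compound added, incubated 3 h at 4 °C. After washing, bound protein detected with streptavidin-peroxidase (80 ng/mL, 1 h, 4 °C) and ABTS substrate, read spectrophotometrically. IC50 given as mean of several measurements.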

A further experiment addresses human Gal-1 (hGal-1) (Homo sapiens, UniProt P09382). The experiment can be described thus: Competitive binding assay: biotinylated hGal-1 to microplate-adsorbed asialofetuin (ASF). To be noted: Activities on hGal-1; binding to ASF-coated plates, 3 hours at 4° C.; mean values; read-out: Gal-1 IC50. A digest of the protocol:
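Plate-adsorbed asialofetuin is incubated 3 h at 4 °C with biotinylated hGal-1, optionally its all-serine-substituted cysteine variant, plus compound dilutions. ABTS color after 1 h streptavidin-peroxidase (80 ng/mL) at 4 °C reports binding. Reported IC50 is a mean across repeat runs.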

human Gal-1 (hGal-1), sequence (P09382 2-135 limits assumed): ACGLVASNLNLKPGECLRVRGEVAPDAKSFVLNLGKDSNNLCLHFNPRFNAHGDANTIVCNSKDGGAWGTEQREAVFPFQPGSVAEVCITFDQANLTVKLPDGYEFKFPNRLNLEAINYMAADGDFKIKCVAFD
human Gal-3 (hGal-3), sequence (P17931 whole entry): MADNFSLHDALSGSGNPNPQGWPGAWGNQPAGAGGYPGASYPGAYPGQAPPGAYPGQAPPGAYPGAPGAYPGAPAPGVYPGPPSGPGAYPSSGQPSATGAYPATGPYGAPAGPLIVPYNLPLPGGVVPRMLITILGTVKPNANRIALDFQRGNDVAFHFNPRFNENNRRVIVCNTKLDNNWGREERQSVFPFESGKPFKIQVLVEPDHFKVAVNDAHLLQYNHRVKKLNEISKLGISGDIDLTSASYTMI

`CO[C@@H]1[C@@H](n2cc(-c3ccc(Cl)c(F)c3F)nn2)[C@@H](O)[C@@H](CO)O[C@@H]1CN1CC2(CCCCC2)CNC1=O` [Example 4.02, 2-(((2R,3R,4S,5R,6R)-4-(4-(4-chloro-2,3-difluorophenyl)-1H-1,2,3-triazol-1-yl)-5-hydroxy-6-(hydroxymethyl)-3-methoxytetrahydro-2H-pyran-2-yl)methyl)-2,4-diazaspiro[5.5]undecan-3-one]: the IC50 at human Gal-3 (hGal-3) came out at 74 nM; at human Gal-1 (hGal-1), 400 nM.

Turning to `CO[C@@H]1[C@@H](n2cc(-c3cc(F)c(F)c(F)c3)nn2)[C@@H](O)[C@@H](CO)O[C@@H]1CC1=NO[C@]2(CC[C@@H](NCC(F)F)CC2)C1` [Example 2.21, (2R,3R,4S,5R,6R)-6-(((5s,8S)-8-((2,2-difluoroethyl)amino)-1-oxa-2-azaspiro[4.5]dec-2-en-3-yl)methyl)-2-(hydroxymethyl)-5-methoxy-4-(4-(3,4,5-trifluorophenyl)-1H-1,2,3-triazol-1-yl)tetrahydro-2H-pyran-3-ol], the half-maximal inhibitory concentration (IC50) at human Gal-3 (hGal-3) came out at 380 nM; on human Gal-1 (hGal-1), 1600 nM.

Turning to `CO[C@@H]1[C@@H](n2cc(-c3cc(F)c(F)c(F)c3)nn2)[C@@H](O)[C@@H](CO)O[C@@H]1CC1=NOC2(CCN(S(C)(=O)=O)CC2)C1` [Example 2.31, (2R,3R,4S,5R,6R)-2-(hydroxymethyl)-5-methoxy-6-((8-(methylsulfonyl)-1-oxa-2,8-diazaspiro[4.5]dec-2-en-3-yl)methyl)-4-(4-(3,4,5-trifluorophenyl)-1H-1,2,3-triazol-1-yl)tetrahydro-2H-pyran-3-ol], the IC50 on human Gal-3 (hGal-3) was 530 nM; at human Gal-1 (hGal-1) it was 3500 nM.

Turning to `CO[C@@H]1[C@@H](n2cc(-c3ccc(Cl)c(F)c3F)nn2)[C@@H](O)[C@@H](CO)O[C@@H]1CC1=NO[C@]2(CC[C@H](NC(=O)OC(C)(C)C)CC2)C1` [Example 1.45, tert-butyl ((5r,8R)-3-(((2R,3R,4S,5R,6R)-4-(4-(4-chloro-2,3-difluorophenyl)-1H-1,2,3-triazol-1-yl)-5-hydroxy-6-(hydroxymethyl)-3-methoxytetrahydro-2H-pyran-2-yl)methyl)-1-oxa-2-azaspiro[4.5]dec-2-en-8-yl)carbamate], the IC50 amounted to 10 nM on human Gal-3 (hGal-3) and 800 nM on human Gal-1 (hGal-1).

As for `CO[C@@H]1[C@@H](n2cc(-c3ccc(C)c(F)c3F)nn2)[C@@H](O)[C@@H](CO)O[C@@H]1CC1=NO[C@]2(CC[C@H](NCC(F)F)CC2)C1` [Example 1.74, (2R,3R,4S,5R,6R)-4-(4-(2,3-difluoro-4-methylphenyl)-1H-1,2,3-triazol-1-yl)-6-(((5r,8R)-8-((2,2-difluoroethyl)amino)-1-oxa-2-azaspiro[4.5]dec-2-en-3-yl)methyl)-2-(hydroxymethyl)-5-methoxytetrahydro-2H-pyran-3-ol], the figures for the half-inhibitory concentration (IC50) at human Gal-3 (hGal-3) and at human Gal-1 (hGal-1) were 120 nM and 2400 nM, respectively.

As to `CO[C@@H]1[C@@H](n2cc(-c3ccc(C)c(F)c3F)nn2)[C@@H](O)[C@@H](CO)O[C@@H]1CN1C=NC2(CCCCC2)C1` [Example 4.04, (2R,3R,4S,5R,6R)-6-((1,3-diazaspiro[4.5]dec-1-en-3-yl)methyl)-4-(4-(2,3-difluoro-4-methylphenyl)-1H-1,2,3-triazol-1-yl)-2-(hydroxymethyl)-5-methoxytetrahydro-2H-pyran-3-ol], the values for the half-inhibitory concentration (IC50) at human Gal-3 (hGal-3) and on human Gal-1 (hGal-1) were 81 nM and 1300 nM, respectively.

Consider `CC(=O)O[C@@H]1[C@@H](n2cc(-c3ccc(C)c(F)c3F)nn2)[C@@H](O)[C@@H](CO)O[C@@H]1CC1=NOC2(CCC(F)(F)CC2)C1` [Example 1.03, (2R,3R,4S,5R,6R)-2-((8,8-difluoro-1-oxa-2-azaspiro[4.5]dec-2-en-3-yl)methyl)-4-(4-(2,3-difluoro-4-methylphenyl)-1H-1,2,3-triazol-1-yl)-5-hydroxy-6-(hydroxymethyl)tetrahydro-2H-pyran-3-yl acetate], for which the IC50 at human Gal-3 (hGal-3) is 79 nM; at human Gal-1 (hGal-1), over 100000 nM.

For the compound `CO[C@@H]1[C@@H](n2cc(-c3cc(F)c(F)c(F)c3)nn2)[C@@H](O)[C@@H](CO)O[C@@H]1CC1=NOC2(CCCC2)C1` [Example 1.09, (2R,3R,4S,5R,6R)-6-((1-oxa-2-azaspiro[4.4]non-2-en-3-yl)methyl)-2-(hydroxymethyl)-5-methoxy-4-(4-(3,4,5-trifluorophenyl)-1H-1,2,3-triazol-1-yl)tetrahydro-2H-pyran-3-ol], the IC50 on human Gal-3 (hGal-3) was 950 nM; at human Gal-1 (hGal-1), 2700 nM.

With `CO[C@@H]1[C@@H](n2cc(-c3ccc(C)c(F)c3F)nn2)[C@@H](O)[C@@H](CO)O[C@@H]1CC1=NO[C@]2(CC[C@@H](NC(=O)OC(C)(C)C)CC2)C1` [Example 1.44, tert-butyl ((5s,8S)-3-(((2R,3R,4S,5R,6R)-4-(4-(2,3-difluoro-4-methylphenyl)-1H-1,2,3-triazol-1-yl)-5-hydroxy-6-(hydroxymethyl)-3-methoxytetrahydro-2H-pyran-2-yl)methyl)-1-oxa-2-azaspiro[4.5]dec-2-en-8-yl)carbamate], the 50% inhibitory concentration (IC50) on human Gal-3 (hGal-3) amounted to 100 nM; at human Gal-1 (hGal-1), 4900 nM.

Regarding `CO[C@@H]1[C@@H](n2cc(-c3ccc(C)c(F)c3F)nn2)[C@@H](O)[C@@H](CO)O[C@@H]1CC1=NOC2(C1)CC1CCC(C1)C2` (stereo partly drawn) [Example 1.82, (2R,3R,4S,5R,6R)-6-((4′H-spiro[bicyclo[3.2.1]octane-3,5′-isoxazol]-3′-yl)methyl)-4-(4-(2,3-difluoro-4-methylphenyl)-1H-1,2,3-triazol-1-yl)-2-(hydroxymethyl)-5-methoxytetrahydro-2H-pyran-3-ol], the IC50 at human Gal-3 (hGal-3) is 50 nM; on human Gal-1 (hGal-1) it was 1950 nM.

As for `Cc1ccc(-c2cn([C@H]3[C@@H](O)[C@@H](CO)O[C@H](CC4=NOC5(CCOCC5)C4)[C@@H]3OCC(=O)O)nn2)c(F)c1F` [Example 2.24, 2-(((2R,3R,4S,5R,6R)-2-((1,8-dioxa-2-azaspiro[4.5]dec-2-en-3-yl)methyl)-4-(4-(2,3-difluoro-4-methylphenyl)-1H-1,2,3-triazol-1-yl)-5-hydroxy-6-(hydroxymethyl)tetrahydro-2H-pyran-3-yl)oxy)acetic acid], the concentration for half-maximal inhibition (IC50) on human Gal-3 (hGal-3) is 80 nM; at human Gal-1 (hGal-1) it was 6700 nM.

Take `COC(=O)CO[C@@H]1[C@@H](n2cc(-c3ccc(C)c(F)c3F)nn2)[C@@H](O)[C@@H](CO)O[C@@H]1CC1=NOC2(CCC(F)(F)CC2)C1` [Example 1.72, methyl 2-(((2R,3R,4S,5R,6R)-2-((8,8-difluoro-1-oxa-2-azaspiro[4.5]dec-2-en-3-yl)methyl)-4-(4-(2,3-difluoro-4-methylphenyl)-1H-1,2,3-triazol-1-yl)-5-hydroxy-6-(hydroxymethyl)tetrahydro-2H-pyran-3-yl)oxy)acetate]: the IC50 came out at 140 nM on human Gal-3 (hGal-3) and 5600 nM at human Gal-1 (hGal-1).

For `CO[C@@H]1[C@@H](n2cc(-c3ccc(C)c(F)c3F)nn2)[C@@H](O)[C@@H](CO)O[C@@H]1CC1=NOC2(CCC(=O)N(C)CC2)C1` (mixture of isomers) [Example 1.77, (RS)-3-(((2R,3R,4S,5R,6R)-4-(4-(2,3-difluoro-4-methylphenyl)-1H-1,2,3-triazol-1-yl)-5-hydroxy-6-(hydroxymethyl)-3-methoxytetrahydro-2H-pyran-2-yl)methyl)-8-methyl-1-oxa-2,8-diazaspiro[4.6]undec-2-en-9-one], the results for the IC50 on human Gal-3 (hGal-3) and on human Gal-1 (hGal-1) were 100 nM and 4800 nM, respectively.

Consider `CO[C@@H]1[C@@H](n2cc(-c3cc(F)c(F)c(F)c3)nn2)[C@@H](O)[C@@H](CO)O[C@@H]1CC1=NOC2(CCN(C(=O)NC(C)(C)C)CC2)C1` [Example 2.28, N-(tert-butyl)-3-(((2R,3R,4S,5R,6R)-5-hydroxy-6-(hydroxymethyl)-3-methoxy-4-(4-(3,4,5-trifluorophenyl)-1H-1,2,3-triazol-1-yl)tetrahydro-2H-pyran-2-yl)methyl)-1-oxa-2,8-diazaspiro[4.5]dec-2-ene-8-carboxamide], for which the IC50 on human Gal-3 (hGal-3) was found to be 140 nM; at human Gal-1 (hGal-1), 1700 nM.

On to `CO[C@@H]1[C@@H](n2cc(-c3cc(F)c(F)c(F)c3)nn2)[C@@H](O)[C@@H](CO)O[C@@H]1CC1=NOC2(CCC(F)(F)CC2)C1` [Example 1.24, (2R,3R,4S,5R,6R)-6-((8,8-difluoro-1-oxa-2-azaspiro[4.5]dec-2-en-3-yl)methyl)-2-(hydroxymethyl)-5-methoxy-4-(4-(3,4,5-trifluorophenyl)-1H-1,2,3-triazol-1-yl)tetrahydro-2H-pyran-3-ol], for which the 50% inhibitory concentration (IC50) came to 450 nM on human Gal-3 (hGal-3) and 4900 nM on human Gal-1 (hGal-1).

Consider `CO[C@@H]1[C@@H](n2cc(-c3ccc(C)c(F)c3F)nn2)[C@@H](O)[C@@H](CO)O[C@@H]1CC1=NOC2(CCC(C#N)CC2)C1` (stereo partly drawn) [Example 1.51, 3-(((2R,3R,4S,5R,6R)-4-(4-(2,3-difluoro-4-methylphenyl)-1H-1,2,3-triazol-1-yl)-5-hydroxy-6-(hydroxymethyl)-3-methoxytetrahydro-2H-pyran-2-yl)methyl)-1-oxa-2-azaspiro[4.5]dec-2-ene-8-carbonitrile], for which the 50% inhibitory concentration (IC50) at human Gal-3 (hGal-3) came out at 100 nM; at human Gal-1 (hGal-1) it was 1900 nM.

For `CO[C@@H]1[C@@H](n2cc(-c3cc(F)c(F)c(F)c3)nn2)[C@@H](O)[C@@H](CO)O[C@@H]1CC1=NO[C@]2(CC[C@@H](NC(C)C)CC2)C1` [Example 2.13, (2R,3R,4S,5R,6R)-2-(hydroxymethyl)-6-(((5s,8S)-8-(isopropylamino)-1-oxa-2-azaspiro[4.5]dec-2-en-3-yl)methyl)-5-methoxy-4-(4-(3,4,5-trifluorophenyl)-1H-1,2,3-triazol-1-yl)tetrahydro-2H-pyran-3-ol], the IC50 amounted to 550 nM at human Gal-3 (hGal-3) and 7000 nM on human Gal-1 (hGal-1).

On to `CO[C@@H]1[C@@H](n2cc(-c3ccc(C)c(F)c3F)nn2)[C@@H](O)[C@@H](CO)O[C@@H]1CC1=NO[C@]2(CC[C@H](NC(C)=O)CC2)C1` [Example 2.06], for which the IC50 at human Gal-3 (hGal-3) came out at 71 nM; on human Gal-1 (hGal-1) it was 340 nM.
